Results taken from ChEMBL document CHEMBL5046279, “Discovery of a Partial Glucokinase Activator Clinical Candidate: Diethyl ((3-(3-((5-(Azetidine-1-carbonyl)pyrazin-2-yl)oxy)-5-isopropoxybenzamido)-1H-pyrazol-1-yl)methyl)phosphonate (BMS-820132)” (J Med Chem, 2022).
Values after ≈ are worked out from the molar mass of the structure shown.

What was measured:
Mus musculus [1] = test: Anti-hyperglycemic activity in C57BL/6J DIO mouse assessed as reduction in plasma glucose AUC at 3 umol/kg incubated for 120 mins by OGTT; type: functional; design: scale not given: the % may be the effect or the level left; settings: dose 3 µM/Kg, 2 h, at 3 µmol/kg
Salmonella typhimurium [2] = test: Mutagenicity in Salmonella typhimurium TA1535 at 5000 ug/plate in absence of S9 fraction by Ames test; type: toxicity, organism-based; settings: salmonella enterica subsp. enterica serovar typhimurium; dose 5000 µg
[3] = Cmax in CD1 mouse at 5 mg/kg, po measured upto 24 hrs by LC-MS/MS analysis; type: ADME, organism-based; design: route oral, dose 5 mg/kg, time <=24; settings: in vivo
[4] = Phototoxicity in BALB/c mouse 3T3 fibroblasts; type: toxicity, cell-based
[5] = target: Voltage-gated inwardly rectifying potassium channel KCNH2 (Homo sapiens, UniProt Q12809); test: Inhibition of hERG by patch clamp method; type: toxicity
Chain of Voltage-gated inwardly rectifying potassium channel KCNH2 (Q12809 whole entry): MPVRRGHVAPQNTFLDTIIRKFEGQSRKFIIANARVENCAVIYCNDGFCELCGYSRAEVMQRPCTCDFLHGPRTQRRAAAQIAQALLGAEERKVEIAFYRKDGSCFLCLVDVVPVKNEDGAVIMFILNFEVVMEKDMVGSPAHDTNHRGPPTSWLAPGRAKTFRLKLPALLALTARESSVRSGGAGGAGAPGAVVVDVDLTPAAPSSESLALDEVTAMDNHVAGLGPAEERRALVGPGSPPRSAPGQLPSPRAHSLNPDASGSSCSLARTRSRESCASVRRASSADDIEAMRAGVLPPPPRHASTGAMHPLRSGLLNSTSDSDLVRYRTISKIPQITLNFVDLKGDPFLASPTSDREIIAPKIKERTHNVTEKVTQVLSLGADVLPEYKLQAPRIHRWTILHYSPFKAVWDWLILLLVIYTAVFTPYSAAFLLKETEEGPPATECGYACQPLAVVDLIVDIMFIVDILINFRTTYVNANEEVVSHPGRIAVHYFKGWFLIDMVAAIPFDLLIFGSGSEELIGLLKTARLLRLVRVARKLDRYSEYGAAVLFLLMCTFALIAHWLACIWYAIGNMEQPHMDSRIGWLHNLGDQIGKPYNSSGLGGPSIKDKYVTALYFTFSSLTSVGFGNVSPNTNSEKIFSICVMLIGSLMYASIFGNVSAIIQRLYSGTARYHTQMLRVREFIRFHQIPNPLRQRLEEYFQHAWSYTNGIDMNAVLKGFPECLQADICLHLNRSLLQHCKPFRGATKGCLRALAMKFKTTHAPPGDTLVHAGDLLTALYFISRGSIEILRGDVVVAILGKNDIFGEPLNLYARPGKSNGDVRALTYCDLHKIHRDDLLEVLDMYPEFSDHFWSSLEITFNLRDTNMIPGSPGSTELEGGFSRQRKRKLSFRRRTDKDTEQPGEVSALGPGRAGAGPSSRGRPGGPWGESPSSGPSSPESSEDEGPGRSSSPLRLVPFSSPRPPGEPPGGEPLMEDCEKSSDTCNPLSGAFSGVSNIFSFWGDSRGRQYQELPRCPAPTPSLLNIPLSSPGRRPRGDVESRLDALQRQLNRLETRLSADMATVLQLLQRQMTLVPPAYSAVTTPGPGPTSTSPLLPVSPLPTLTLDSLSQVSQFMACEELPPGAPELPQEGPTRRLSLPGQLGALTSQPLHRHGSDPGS

[6] = AUC (0 to 24 hrs) in cynomolgus monkey at 3 mg/kg, iv measured upto 24 hrs; type: ADME, organism-based, Macaca fascicularis; design: route intravenous, dose 3 mg/kg, time <=24; settings: in vivo
[7] = Tmax in Sprague-Dawley rat at 5 mg/kg, po measured upto 24 hrs by LC-MS/MS analysis; type: ADME, organism-based; settings: in vivo
[8] = AUC (0 to 24 hrs) in Sprague-Dawley rat at 5 mg/kg, po measured upto 24 hrs by LC-MS/MS analysis; type: ADME, organism-based; design: route oral, dose 5 mg/kg, time <=24; settings: in vivo
[9] = Cmax in cynomolgus monkey at 3 mg/kg, po measured upto 24 hrs; type: ADME, organism-based, Macaca fascicularis; design: route oral, dose 3 mg/kg, time <=24; settings: in vivo
[10] = Aqueous solubility of the compound at pH 6.5 using crystaline form of sample; type: physicochemical
[11] = Half life in CD1 mouse at 2.5 mg/kg, iv measured upto 24 hrs by LC-MS/MS analysis; type: ADME, organism-based; settings: in vivo
Mus musculus [12] = test: Anti-hyperglycemic activity in C57BL/6J DIO mouse assessed as reduction in plasma glucose AUC at 10 umol/kg incubated for 120 mins by OGTT; type: functional; design: scale not given: the % may be the effect or the level left; settings: dose 10 µM/Kg, 2 h, at 10 µmol/kg
[13] = Microsomal stability in human liver microsomes assessed as parent compound remaining at 0.5 uM measured after 10 mins in presence of NADPH; type: ADME, Microsome; settings: read-out: Stability
[14] = AUC (0 to 24 hrs) in Sprague-Dawley rat at 2.5 mg/kg, iv measured upto 24 hrs by LC-MS/MS analysis; type: ADME, organism-based; design: route intravenous, dose 2.5 mg/kg, time <=24; settings: in vivo
[15] = AUC (0 to 24 hrs) in Beagle dog at 3 mg/kg, po measured upto 24 hrs; type: ADME, organism-based, Canis lupus familiaris; design: route oral, dose 3 mg/kg, time <=24; settings: in vivo
[16] = Systemic plasma clearance in Beagle dog at 3 mg/kg, iv measured upto 24 hrs; type: ADME, organism-based, Canis lupus familiaris
Salmonella typhimurium [17] = test: Mutagenicity in Salmonella typhimurium TA1537 at 5000 ug/plate in presence of S9 fraction by Ames test; type: toxicity, organism-based; settings: salmonella enterica subsp. enterica serovar typhimurium, dose 5000 µg
Mus musculus [18] = test: Anti-hyperglycemic activity in C57BL/6J DIO mouse assessed as reduction in plasma glucose level at 3 umol/kg measured after 14 days; type: functional; design: scale not given: the % may be the effect or the level left; settings: dose 3 µM/Kg; time 14 day; at 3 µmol/kg
Mus musculus [19] = test: Anti-hyperglycemic activity in C57BL/6J DIO mouse assessed as reduction in plasma glucose AUC at 30 umol/kg, po measured after 120 mins by OGTT; type: functional; design: scale not given: the % may be the effect or the level left; settings: dose 30 µM/Kg, 2 h, at 30 µmol/kg
[20] = Systemic plasma clearance in CD1 mouse at 2.5 mg/kg, iv measured upto 24 hrs by LC-MS/MS analysis; type: ADME, organism-based
sodium channel [21] = test: Inhibition of sodium channel (unknown origin) at 4 Hz at 10 uM by patch clamp assay relative to control; type: toxicity; settings: human
[22] = Oral bioavailability in Beagle dog at 3 mg/kg measured upto 24 hrs; type: ADME, organism-based, Canis lupus familiaris; settings: in vivo
[23] = Tmax in Beagle dog at 3 mg/kg, po measured upto 24 hrs; type: ADME, organism-based, Canis lupus familiaris; settings: in vivo
Salmonella typhimurium [24] = test: Mutagenicity in Salmonella typhimurium TA1535 at 5000 ug/plate in presence of S9 fraction by Ames test; type: toxicity, organism-based; settings: salmonella enterica subsp. enterica serovar typhimurium, dose 5000 µg
[25] = Volume of distribution at steady state in CD1 mouse at 2.5 mg/kg, iv measured upto 24 hrs by LC-MS/MS analysis; type: ADME, organism-based; settings: in vivo, read-out: Vdss
Mus musculus [26] = test: Anti-hyperglycemic activity in C57BL/6J DIO mouse assessed as reduction in plasma glucose AUC at 0.3 umol/kg incubated for 120 mins by OGTT; type: functional; design: scale not given: the % may be the effect or the level left; settings: dose 0.3 µM/Kg, 2 h, at 0.3 µmol/kg
[27] = Oral bioavailability in Sprague-Dawley rat at 5 mg/kg measured upto 24 hrs by LC-MS/MS analysis; type: ADME, organism-based; settings: in vivo
[28] = Permeability of compound at pH >= 5.5 by PAMPA assay; type: ADME; settings: read-out: permeability
[29] = Oral bioavailability in cynomolgus monkey at 3 mg/kg measured upto 24 hrs; type: ADME, organism-based, Macaca fascicularis; settings: in vivo
Hexokinase-4 = target: T1, Hexokinase-4 (Mus musculus, UniProt P52792); test: Activation of recombinant mouse full length liver glucokinase expressed in Escherichia coli incubated for 10 mins in presence of 12 mM glucose by plate reader analysis
T1 sequence (P52792 whole entry): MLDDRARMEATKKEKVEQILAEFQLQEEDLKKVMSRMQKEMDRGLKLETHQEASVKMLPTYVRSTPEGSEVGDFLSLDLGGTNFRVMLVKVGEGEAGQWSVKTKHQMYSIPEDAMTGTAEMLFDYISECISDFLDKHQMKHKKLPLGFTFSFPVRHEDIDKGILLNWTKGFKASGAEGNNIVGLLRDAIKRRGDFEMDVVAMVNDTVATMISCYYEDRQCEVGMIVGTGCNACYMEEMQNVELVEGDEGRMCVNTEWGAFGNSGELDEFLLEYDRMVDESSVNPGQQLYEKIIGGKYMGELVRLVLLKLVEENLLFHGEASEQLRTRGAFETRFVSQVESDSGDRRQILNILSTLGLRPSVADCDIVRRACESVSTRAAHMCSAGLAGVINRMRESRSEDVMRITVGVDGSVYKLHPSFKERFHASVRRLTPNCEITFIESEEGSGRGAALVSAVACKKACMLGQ

[30] = AUC (0 to 24 hrs) in cynomolgus monkey at 3 mg/kg, po measured upto 24 hrs; type: ADME, organism-based, Macaca fascicularis; design: route oral, dose 3 mg/kg, time <=24; settings: in vivo
[31] = AUC (0 to 24 hrs) in CD1 mouse at 2.5 mg/kg, iv measured upto 24 hrs by LC-MS/MS analysis; type: ADME, organism-based; design: route intravenous, dose 2.5 mg/kg, time <=24; settings: in vivo
Salmonella typhimurium [32] = test: Mutagenicity in Salmonella typhimurium TA100 at 5000 ug/plate in absence of S9 fraction by Ames test; type: toxicity, organism-based; settings: salmonella enterica subsp. enterica serovar typhimurium; dose 5000 µg
[33] = Tmax in cynomolgus monkey at 3 mg/kg, po measured upto 24 hrs; type: ADME, organism-based, Macaca fascicularis; settings: in vivo
L-type calcium channel = test: Inhibition of L-type calcium channel (unknown origin) at 10 uM by patch clamp assay relative to control; type: toxicity; settings: human
sodium channel [34] = test: Inhibition of sodium channel (unknown origin) at 1 Hz at 10 uM by patch clamp assay relative to control; type: toxicity; settings: human
Mus musculus [35] = test: Anti-hyperglycemic activity in C57BL/6J DIO mouse assessed as reduction in plasma glucose level at 30 umol/kg measured after 14 days; type: functional; design: scale not given: the % may be the effect or the level left; settings: dose 30 µM/Kg; time 14 day; at 30 µmol/kg
Mus musculus [36] = test: Anti-hyperglycemic activity in C57BL/6J DIO mouse assessed as reduction in plasma glucose level at 30 umol/kg, po qd measured on day 14 by OGTT; type: functional; design: scale not given: the % may be the effect or the level left; settings: dose 30 µM/Kg; time 24 hrs; at 30 µmol/kg

SMILES: CCOP(=O)(Cn1ccc(NC(=O)c2cc(Oc3cnc(C(=O)N4CCC4)cn3)cc(OC(C)C)c2)n1)OCC
- Activity (Mus musculus [1]): -50%
- Activity (Salmonella typhimurium [2]): Non-Toxic
- Cmax [3]: 14.1 µM
- Activity [4]: Toxic
- IC50 [5]: > 80000 nM
- AUC(0-t) [6]: 3.8 µM·h
- Tmax [7]: 0.9 h
- AUC(0-t) [8]: 29.5 µM·h
- Cmax [9]: 0.38 µM
- solubility [10]: 10 µg/mL (≈ 17.5 µM)
- half-life [11]: 2.1 h
- Activity (Mus musculus [12]): -62%
- remaining at 10 min, 0.5 µM [13]: 96%
- AUC(0-t) [14]: 16.6 µM·h
- AUC(0-t) [15]: 8 µM·h
- clearance [16]: 7.2 mL/min/kg
- Activity (Salmonella typhimurium [17]): Non-Toxic
- Activity (Mus musculus [18]): -48%
- Activity (Mus musculus [19]): -59%
- clearance [20]: 2.9 mL/min/kg
- inhibition at 10 µM (sodium channel [21]): 12%
- bioavailability [22]: 66%
- Tmax [23]: 0.8 h
- Activity (Salmonella typhimurium [24]): Non-Toxic
- Vd [25]: 0.3 L/kg
- Activity (Mus musculus [26]): -18%
- bioavailability [27]: 90%
- Papp [28]: > 40 ×10⁻⁶ cm/s
- bioavailability [29]: 15%
- EC50 (Hexokinase-4): 32 nM
- AUC(0-t) [30]: 0.57 µM·h
- AUC(0-t) [31]: 24.9 µM·h
- Activity (Salmonella typhimurium [32]): Non-Toxic
- Tmax [33]: 1.3 h
- inhibition at 10 µM (L-type calcium channel): 13%
- inhibition at 10 µM (sodium channel [34]): 9%
- Activity (Mus musculus [35]): -63%
- Activity (Mus musculus [36]): -46%
